In general, IC50 refers to the midpoint of a concentration-inhibition curve. One may read the EC50 as the concentration needed to bring the measured effect to its halfway point. Read a low EC50 as an effect from little substance.

This is an account of results in patent publication US6525021B1 (priority 1998, dated 2003).

The target of test [1] is human neurotensin type 1 receptor (hNTR1) (Homo sapiens, UniProt P30989). Kind of test: biochemical. The class given is binding.
The target of test [2] is rat neurotensin type 1 receptor (rNTR1) (Rattus norvegicus, UniProt P20789). Kind of test: biochemical. It is filed as binding.
For test [3], the target named is solubilized mouse neurotensin type 3 receptor (mNTR3) (Mus musculus, UniProt Q6PHU5). Kind of test: biochemical. It is filed as binding.
In the next test the target is rNTR1 (Rattus norvegicus, UniProt P20789). Kind of test: cell-based. It is filed as cell-based.
The target in test [4] is rat neurotensin type 2 receptor (rNTR2) (Rattus norvegicus, UniProt Q63384). Put plainly: biochemical. It is filed as binding.
The target in another test is rNTR2 (Rattus norvegicus, UniProt Q63384). It is filed as cell-based.
Details of test [5]: species or system mice. As to conditions: mouse, in vivo.

Entries after “also recorded” stand apart in the source; their conditions may differ. Non-standard residues stand in square brackets, D forms with d. Residues, ends and D or L forms follow the SMILES beside them. *: point of attachment. X1 = CC(=O)N[C@@H]1[C@@H](O[C@@H]2O[C@H](CO)[C@H](O)[C@H](O)[C@H]2O)[C@@H](O)[C@@H](CO)O[C@@H]1*; pGlu = O=C1CC[C@@H](C(=O)O)N1

Chain of rNTR1 (P20789 whole entry, looked up): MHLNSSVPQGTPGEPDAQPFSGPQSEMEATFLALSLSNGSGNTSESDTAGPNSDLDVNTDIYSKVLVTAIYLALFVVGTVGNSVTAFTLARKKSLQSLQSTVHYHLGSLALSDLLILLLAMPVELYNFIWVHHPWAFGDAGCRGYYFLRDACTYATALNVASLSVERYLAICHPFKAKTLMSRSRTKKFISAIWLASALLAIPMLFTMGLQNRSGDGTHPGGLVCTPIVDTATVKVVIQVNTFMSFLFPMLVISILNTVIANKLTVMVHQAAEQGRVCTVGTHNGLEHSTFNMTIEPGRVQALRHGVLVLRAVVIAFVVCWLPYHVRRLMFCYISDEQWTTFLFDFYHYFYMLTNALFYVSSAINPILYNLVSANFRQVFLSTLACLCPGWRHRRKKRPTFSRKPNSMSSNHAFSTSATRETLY
Chain of rNTR2 (Q63384 whole entry, looked up): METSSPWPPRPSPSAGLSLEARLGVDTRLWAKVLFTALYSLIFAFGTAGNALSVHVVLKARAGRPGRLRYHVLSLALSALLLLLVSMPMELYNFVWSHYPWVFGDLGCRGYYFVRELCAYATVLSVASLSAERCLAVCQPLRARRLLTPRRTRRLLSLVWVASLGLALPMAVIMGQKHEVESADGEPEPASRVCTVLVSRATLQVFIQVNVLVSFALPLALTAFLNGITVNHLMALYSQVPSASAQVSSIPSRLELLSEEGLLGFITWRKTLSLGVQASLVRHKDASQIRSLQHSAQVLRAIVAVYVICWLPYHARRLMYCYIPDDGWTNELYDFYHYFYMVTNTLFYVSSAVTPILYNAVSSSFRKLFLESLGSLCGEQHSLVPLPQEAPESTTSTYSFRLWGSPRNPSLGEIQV
Chain of rat neurotensin type 1 receptor (rNTR1) (P20789 whole entry, looked up): as the sequence (P20789 whole entry, looked up) above
Chain of human neurotensin type 1 receptor (hNTR1) (P30989 whole entry, looked up): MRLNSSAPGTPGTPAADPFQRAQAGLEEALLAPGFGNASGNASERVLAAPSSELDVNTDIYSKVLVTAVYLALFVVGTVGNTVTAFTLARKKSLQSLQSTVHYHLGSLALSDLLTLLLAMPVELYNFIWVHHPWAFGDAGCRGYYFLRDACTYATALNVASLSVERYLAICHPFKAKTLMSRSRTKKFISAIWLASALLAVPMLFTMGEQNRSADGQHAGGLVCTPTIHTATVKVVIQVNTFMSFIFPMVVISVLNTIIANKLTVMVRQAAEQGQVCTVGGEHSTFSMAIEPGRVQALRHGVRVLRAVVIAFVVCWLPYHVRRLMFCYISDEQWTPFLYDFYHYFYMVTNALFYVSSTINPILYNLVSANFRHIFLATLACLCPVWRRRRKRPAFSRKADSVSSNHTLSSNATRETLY
Chain of rat neurotensin type 2 receptor (rNTR2) (Q63384 whole entry, looked up): as the sequence (Q63384 whole entry, looked up) above
Chain of solubilized mouse neurotensin type 3 receptor (mNTR3) (Q6PHU5 74-825 limits assumed): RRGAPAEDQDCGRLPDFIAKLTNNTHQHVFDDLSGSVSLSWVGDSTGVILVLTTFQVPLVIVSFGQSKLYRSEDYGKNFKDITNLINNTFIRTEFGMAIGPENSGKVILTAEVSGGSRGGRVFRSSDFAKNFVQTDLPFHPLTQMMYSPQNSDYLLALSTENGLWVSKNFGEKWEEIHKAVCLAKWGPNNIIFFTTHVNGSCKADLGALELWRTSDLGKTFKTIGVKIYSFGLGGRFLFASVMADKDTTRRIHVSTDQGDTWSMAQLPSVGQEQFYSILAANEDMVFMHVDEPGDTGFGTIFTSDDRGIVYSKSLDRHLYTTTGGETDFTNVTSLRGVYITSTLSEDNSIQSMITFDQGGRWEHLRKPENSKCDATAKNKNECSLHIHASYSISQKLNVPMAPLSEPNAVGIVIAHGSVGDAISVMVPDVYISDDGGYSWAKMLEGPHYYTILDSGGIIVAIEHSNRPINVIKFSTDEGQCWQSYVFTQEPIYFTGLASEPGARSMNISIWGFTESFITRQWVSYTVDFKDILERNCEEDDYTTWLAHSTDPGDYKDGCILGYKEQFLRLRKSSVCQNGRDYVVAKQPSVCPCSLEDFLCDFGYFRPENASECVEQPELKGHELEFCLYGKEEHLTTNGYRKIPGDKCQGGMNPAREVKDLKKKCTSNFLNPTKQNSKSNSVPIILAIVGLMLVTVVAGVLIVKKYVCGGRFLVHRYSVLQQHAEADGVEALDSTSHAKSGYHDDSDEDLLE

Turning to `CC[C@H](C)[C@H](NC(=O)[C@H](Cc1ccc(O)cc1)NC(=O)[C@@H]1CCCN1C(=O)[C@H](CCCCN)NC(=O)[C@H](CCCCN)NC(=O)[C@@H](NC(=O)[C@H](C)NC(=O)[C@H](CC(N)=O)NC(=O)[C@H](CO)NC(=O)CNC(=O)CNC(=O)[C@H](CCC(=O)O)NC(=O)[C@H](CCC(=O)O)NC(=O)[C@H](CO)NC(=O)[C@@H]1CCC(=O)N1)[C@@H](C)O[C@H]1O[C@H](CO)[C@H](O)[C@H](O[C@@H]2O[C@H](CO)[C@H](O)[C@H](O)[C@H]2O)[C@H]1NC(C)=O)C(=O)N[C@@H](CC(C)C)C(=O)O` [contulakin-G] ([pGlu]SEEGGSNAT(X1)KKPYIL-OH), the IC50 in test [1] was found to be 960 nM; in test [2], 524 nM; in test [3], 250 nM; in test [4], 730 nM. This compound also yielded an EC50 on rNTR1 of 20 to 30 nM. The “agonistic efficacy compared with Neurotensin1-13” value on rNTR1 is “approximately half”. Besides, at rNTR1, the “mode of action on CHO cells expressing the rNTR1” value is “acted as agonists”. Also, the agonist response entry on rNTR2 is given as “No response; also recorded: absence of any agonistic effect”.
Consider “Δ1-9-Ser10-contulakin-G containing the native glycosylation on Ser10 [analog B]”, for which, in test [5], the “activity (onset and recovery time) compared with analog A” value is reported as “same activity”; the “time mice were drowsy” value came out at 100 min.
